Legend:
L6 = assay: Cytotoxicity against rat L6 cells after 70 hrs by Alamar Blue assay; format: cell-based; conditions: L6, 70 h
Plasmodium falciparum [1] = assay: Antiplasmodial activity against erythrocytic stage of multidrug-resistant Plasmodium falciparum Thailand K1 infected in human A positive RBC after 48 hrs by [3H]hypoxanthine incorporation assay; format: functional, organism-based
Plasmodium falciparum [2] = assay: Antiplasmodial activity against erythrocytic stage of chloroquine-resistant Plasmodium falciparum IndoChina W2 infected in human A positive RBC after 48 hrs by [3H]hypoxanthine incorporation assay; format: functional, organism-based
[3] = Selectivity index, ratio of IC50 for rat L6 cells to IC50 for erythrocytic stage of chloroquine-resistant Plasmodium falciparum IndoChina W2; format: toxicity, cell-based; conditions: read-out: Ratio IC50
Plasmodium falciparum [4] = assay: Ratio of dihydroartemisinin IC50 to compound IC50 for erythrocytic stage of chloroquine-resistant Plasmodium falciparum IndoChina W2; format: functional

Row | SMILES | IC50 (L6) [nM] | IC50 (Plasmodium falciparum [1]) [nM] | IC50 (Plasmodium falciparum [2]) [nM] | selectivity ratio [3] | Ratio IC50 (Plasmodium falciparum [4])
1 | O=C(N[C@@H](c1ccccc1)[C@@H](O)C(=O)O)c1ccccc1 | > 100000 | > 10000 | > 10000 | – | –
2 | OCc1cccc(Nc2ccnc3cc(Cl)ccc23)c1 | 21100 | 300 | 300 | 70.4 | –
3 | O=C(N[C@@H](c1ccccc1)[C@@H](O)C(=O)NCCNc1ccnc2cc(Cl)ccc12)c1ccccc1 | 15100 | 360 | 560 | 27 | –
4 | O=C(N[C@@H](c1ccccc1)[C@@H](O)C(=O)NCCCNc1ccnc2cc(Cl)ccc12)c1ccccc1 | 28300 | 1000 | 480 | 59 | –
5 | [N-]=[N+]=NCCCNc1ccnc2cc(Cl)ccc12 | 9480 | 330 | 170 | 55.8 | –
6 | [N-]=[N+]=NCc1cccc(Nc2ccnc3cc(Cl)ccc23)c1 | 76600 | 1110 | 550 | 139 | –
7 | [N-]=[N+]=NCc1ccccc1Nc1ccnc2cc(Cl)ccc12 | – | – | 220 | – | –
8 | O=C(N[C@@H](c1ccccc1)[C@@H](O)C(=O)NCc1cn(CCNc2ccnc3cc(Cl)ccc23)nn1)c1ccccc1 | 85600 | 1110 | 2710 | 31.6 | –
9 | O=C(N[C@@H](c1ccccc1)[C@@H](O)C(=O)NCc1cn(CCCNc2ccnc3cc(Cl)ccc23)nn1)c1ccccc1 | 88200 | 390 | 1690 | 52.2 | –
10 | O=C(N[C@@H](c1ccccc1)[C@@H](O)C(=O)NCc1cn(Cc2cccc(Nc3ccnc4cc(Cl)ccc34)c2)nn1)c1ccccc1 | 67900 | 2440 | 280 | 242 | –
11 | O=C(N[C@@H](c1ccccc1)[C@@H](O)C(=O)NCc1cn(Cc2ccccc2Nc2ccnc3cc(Cl)ccc23)nn1)c1ccccc1 | 30100 | 3240 | 1050 | 28.6 | –
12 | CC(=O)O[C@@H](C(=O)O)[C@@H](NC(=O)c1ccccc1)c1ccccc1 | > 100000 | > 10000 | > 10000 | – | –
13 | C[C@H]1[C@H](OC(=O)[C@H](O)[C@@H](NC(=O)c2ccccc2)c2ccccc2)O[C@@H]2O[C@@]3(C)CC[C@H]4[C@H](C)CC[C@@H]1[C@@]24OO3 | 1030 | 0.7 | 5 | 206 | 3
14 | CC(=O)O[C@@H](C(=O)O[C@@H]1O[C@@H]2O[C@@]3(C)CC[C@H]4[C@H](C)CC[C@@H]([C@H]1C)[C@@]24OO3)[C@@H](NC(=O)c1ccccc1)c1ccccc1 | 830 | 0.5 | 5 | 166 | 3
15 | OCc1ccccc1Nc1ccnc2cc(Cl)ccc12 | – | – | 40 | – | –
16 | O=C(N[C@@H](c1ccccc1)[C@@H](O)C(=O)OCCNc1ccnc2cc(Cl)ccc12)c1ccccc1 | – | – | 390 | – | –
17 | CC(=O)O[C@@H](C(=O)OCCNc1ccnc2cc(Cl)ccc12)[C@@H](NC(=O)c1ccccc1)c1ccccc1 | 25200 | 250 | 220 | 114 | –
18 | O=C(N[C@@H](c1ccccc1)[C@@H](O)C(=O)OCCCNc1ccnc2cc(Cl)ccc12)c1ccccc1 | – | – | 130 | – | –
19 | CC(=O)O[C@@H](C(=O)OCCCNc1ccnc2cc(Cl)ccc12)[C@@H](NC(=O)c1ccccc1)c1ccccc1 | 24200 | 220 | 160 | 151 | –
20 | OCCNc1ccnc2cc(Cl)ccc12 | – | – | 550 | – | –
21 | OCCCNc1ccnc2cc(Cl)ccc12 | – | – | 410 | – | –
22 | [N-]=[N+]=NCCNc1ccnc2cc(Cl)ccc12 | – | – | 290 | – | –
23 | C[C@H]1[C@@H](O)O[C@@H]2O[C@@]3(C)CC[C@H]4[C@H](C)CC[C@@H]1[C@@]24OO3 (mixture of isomers) [ARTENIMOL] | 730 | 1.8 | 3 | 243 | –
24 | C[C@@H]1CC[C@H]2[C@@H](C)C(=O)O[C@@H]3O[C@@]4(C)CC[C@@H]1[C@]32OO4 [ARTEMISININ] | – | 3.2 | 15 | – | –
25 | COc1cc([C@@H]2c3cc4c(cc3[C@H](O)[C@H]3COC(=O)[C@H]23)OCO4)cc(OC)c1OC [PODOFILOX] | 20 | – | – | – | –

From ChEMBL document CHEMBL2407058, “Design, Synthesis, and Antiplasmodial Activity of Hybrid Compounds Based on (2R,3S)-N-Benzoyl-3-phenylisoserine” (ACS Med Chem Lett, 2013)
